Experimental data: PubChem BioAssay AID1982 (Sanford-Burnham Center for Chemical Genomics, 2009)
Active and inactive are the calls of the source. The rule behind the calls is not given here.

Tests used:
Assay in all cases: kinase panel binding selectivity, selectivity assay, biochemical, KINOMEscan (AID 1982)
PIK3CA(E545K) = details: KINOMEscan 353-kinase binding panel, qPCR, at 10 µM, active compounds read low
CDK3 = details: KINOMEscan 353-kinase binding panel, qPCR, at 10 µM, active compounds read low
ACVR2A = details: KINOMEscan 353-kinase binding panel, qPCR, at 10 µM, active compounds read low
[1] = molecular target: Calcium/calmodulin-dependent protein kinase type 1 (Homo sapiens) (UniProt Q14012); details: KINOMEscan 353-kinase binding panel, qPCR; CAMK1; at 10 µM; active compounds read low
[2] = molecular target: Glycogen synthase kinase-3 beta (Homo sapiens) (UniProt P49841); details: KINOMEscan 353-kinase binding panel, qPCR; GSK3B; at 10 µM; active compounds read low
[3] = molecular target: Casein kinase I isoform gamma-1 (Homo sapiens) (UniProt Q9HCP0); details: KINOMEscan 353-kinase binding panel, qPCR; CSNK1G1; at 10 µM; active compounds read low
MYLK = details: KINOMEscan 353-kinase binding panel, qPCR, at 10 µM, active compounds read low
CAMK4 = details: KINOMEscan 353-kinase binding panel, qPCR, at 10 µM, active compounds read low
[4] = molecular target: RAC-gamma serine/threonine-protein kinase (Homo sapiens) (UniProt Q9Y243); details: KINOMEscan 353-kinase binding panel, qPCR; AKT3; at 10 µM; active compounds read low
TNIK = details: KINOMEscan 353-kinase binding panel, qPCR, at 10 µM, active compounds read low
CSK = details: KINOMEscan 353-kinase binding panel, qPCR, at 10 µM, active compounds read low
MEK3 = details: KINOMEscan 353-kinase binding panel, qPCR, at 10 µM, active compounds read low
[5] = molecular target: Casein kinase I isoform delta (Homo sapiens) (UniProt P48730); details: KINOMEscan 353-kinase binding panel, qPCR; CSNK1D; at 10 µM; active compounds read low
[6] = molecular target: cAMP-dependent protein kinase catalytic subunit alpha (Homo sapiens) (UniProt P17612); details: KINOMEscan 353-kinase binding panel, qPCR; PKAC-alpha; at 10 µM; active compounds read low
[7] = molecular target: Tyrosine-protein kinase receptor UFO (Homo sapiens) (UniProt P30530); details: KINOMEscan 353-kinase binding panel, qPCR; AXL; at 10 µM; active compounds read low
AURKC = details: KINOMEscan 353-kinase binding panel, qPCR, at 10 µM, active compounds read low
[8] = molecular target: Serine/threonine-protein kinase Chk1 (Homo sapiens) (UniProt O14757); details: KINOMEscan 353-kinase binding panel, qPCR; CHEK1; at 10 µM; active compounds read low
[9] = molecular target: Uncharacterized serine/threonine-protein kinase SBK3 (Homo sapiens) (UniProt P0C264); details: KINOMEscan 353-kinase binding panel, qPCR; SgK110; at 10 µM; active compounds read low
[10] = molecular target: Tyrosine-protein kinase Srms (Homo sapiens) (UniProt Q9H3Y6); details: KINOMEscan 353-kinase binding panel, qPCR, at 10 µM, active compounds read low
[11] = molecular target: Fibroblast growth factor receptor 3 (Homo sapiens) (UniProt P22607); details: KINOMEscan 353-kinase binding panel, qPCR, at 10 µM, active compounds read low
AMPK-alpha2 = details: KINOMEscan 353-kinase binding panel, qPCR, at 10 µM, active compounds read low
RPS6KA6(Kin.Dom.2) = details: KINOMEscan 353-kinase binding panel, qPCR, at 10 µM, active compounds read low
ADCK3 = details: KINOMEscan 353-kinase binding panel, qPCR, at 10 µM, active compounds read low
[12] = molecular target: Protein kinase C delta type (Homo sapiens) (UniProt Q05655); details: KINOMEscan 353-kinase binding panel, qPCR; PRKCD; at 10 µM; active compounds read low
[13] = molecular target: Activated CDC42 kinase 1 (Homo sapiens) (UniProt Q07912); details: KINOMEscan 353-kinase binding panel, qPCR; TNK2; at 10 µM; active compounds read low
MAP3K3 = details: KINOMEscan 353-kinase binding panel, qPCR, at 10 µM, active compounds read low
RIOK2 = details: KINOMEscan 353-kinase binding panel, qPCR, at 10 µM, active compounds read low
MARK1 = details: KINOMEscan 353-kinase binding panel, qPCR, at 10 µM, active compounds read low
TXK = details: KINOMEscan 353-kinase binding panel, qPCR, at 10 µM, active compounds read low
[14] = molecular target: SRSF protein kinase 1 (Homo sapiens) (UniProt Q96SB4); details: KINOMEscan 353-kinase binding panel, qPCR; SRPK1; at 10 µM; active compounds read low
RPS6KA2(Kin.Dom.1) = details: KINOMEscan 353-kinase binding panel, qPCR, at 10 µM, active compounds read low
[15] = molecular target: Protein kinase C theta type (Homo sapiens) (UniProt Q04759); details: KINOMEscan 353-kinase binding panel, qPCR; PRKCQ; at 10 µM; active compounds read low
[16] = molecular target: Dual specificity mitogen-activated protein kinase kinase 1 (Homo sapiens) (UniProt Q02750); details: KINOMEscan 353-kinase binding panel, qPCR; MEK1; at 10 µM; active compounds read low

Sequence of Fibroblast growth factor receptor 3 (Homo sapiens) (P22607 whole entry, looked up): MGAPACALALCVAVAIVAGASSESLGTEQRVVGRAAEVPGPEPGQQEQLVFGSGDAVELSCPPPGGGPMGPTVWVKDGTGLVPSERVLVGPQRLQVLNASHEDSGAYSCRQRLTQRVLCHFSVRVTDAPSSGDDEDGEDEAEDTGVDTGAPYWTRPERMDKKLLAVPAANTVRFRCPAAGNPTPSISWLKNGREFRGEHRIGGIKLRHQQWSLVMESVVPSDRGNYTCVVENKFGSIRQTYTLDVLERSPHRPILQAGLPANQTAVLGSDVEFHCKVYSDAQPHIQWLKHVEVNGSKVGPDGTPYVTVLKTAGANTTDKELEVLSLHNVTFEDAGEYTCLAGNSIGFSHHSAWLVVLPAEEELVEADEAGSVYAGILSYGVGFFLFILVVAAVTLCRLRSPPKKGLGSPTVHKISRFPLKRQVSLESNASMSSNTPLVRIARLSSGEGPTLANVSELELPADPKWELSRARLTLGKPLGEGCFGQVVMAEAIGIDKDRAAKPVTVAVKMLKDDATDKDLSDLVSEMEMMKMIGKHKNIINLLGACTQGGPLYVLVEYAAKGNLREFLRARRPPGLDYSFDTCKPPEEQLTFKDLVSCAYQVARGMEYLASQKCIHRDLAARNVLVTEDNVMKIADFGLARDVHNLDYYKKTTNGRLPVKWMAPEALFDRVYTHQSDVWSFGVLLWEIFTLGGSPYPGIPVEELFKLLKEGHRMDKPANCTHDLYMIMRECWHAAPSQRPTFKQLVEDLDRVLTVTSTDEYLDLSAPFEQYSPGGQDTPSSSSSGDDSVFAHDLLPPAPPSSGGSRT
Sequence of SRSF protein kinase 1 (Homo sapiens) (Q96SB4 whole entry, looked up): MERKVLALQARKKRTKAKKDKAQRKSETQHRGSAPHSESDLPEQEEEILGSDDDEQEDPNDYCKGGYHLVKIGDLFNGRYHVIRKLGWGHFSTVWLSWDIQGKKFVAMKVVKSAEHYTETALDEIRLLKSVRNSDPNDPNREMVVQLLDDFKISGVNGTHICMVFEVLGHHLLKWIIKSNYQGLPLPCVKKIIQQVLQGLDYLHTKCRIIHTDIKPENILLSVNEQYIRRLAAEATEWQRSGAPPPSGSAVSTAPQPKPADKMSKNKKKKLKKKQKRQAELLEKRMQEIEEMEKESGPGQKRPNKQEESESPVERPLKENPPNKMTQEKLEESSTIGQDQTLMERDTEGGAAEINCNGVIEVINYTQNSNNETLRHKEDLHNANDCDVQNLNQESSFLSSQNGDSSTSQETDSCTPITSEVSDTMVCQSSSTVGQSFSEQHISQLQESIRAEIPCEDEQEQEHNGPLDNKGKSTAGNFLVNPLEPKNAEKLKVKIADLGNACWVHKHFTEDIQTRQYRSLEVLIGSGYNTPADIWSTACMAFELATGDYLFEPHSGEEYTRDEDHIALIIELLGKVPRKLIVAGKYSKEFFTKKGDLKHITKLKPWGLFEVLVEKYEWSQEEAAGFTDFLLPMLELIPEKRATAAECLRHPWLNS
Sequence of Calcium/calmodulin-dependent protein kinase type 1 (Homo sapiens) (Q14012 whole entry, looked up): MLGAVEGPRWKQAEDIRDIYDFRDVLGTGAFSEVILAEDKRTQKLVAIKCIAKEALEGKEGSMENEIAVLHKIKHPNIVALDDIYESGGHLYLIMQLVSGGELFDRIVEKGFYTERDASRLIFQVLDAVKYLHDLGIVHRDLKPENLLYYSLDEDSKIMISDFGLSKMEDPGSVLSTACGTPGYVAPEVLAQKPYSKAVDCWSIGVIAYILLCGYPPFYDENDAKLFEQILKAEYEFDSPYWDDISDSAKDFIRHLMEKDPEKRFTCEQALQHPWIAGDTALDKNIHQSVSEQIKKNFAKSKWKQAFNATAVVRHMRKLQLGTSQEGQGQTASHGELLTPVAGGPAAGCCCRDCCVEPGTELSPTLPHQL
Sequence of Protein kinase C theta type (Homo sapiens) (Q04759 whole entry, looked up): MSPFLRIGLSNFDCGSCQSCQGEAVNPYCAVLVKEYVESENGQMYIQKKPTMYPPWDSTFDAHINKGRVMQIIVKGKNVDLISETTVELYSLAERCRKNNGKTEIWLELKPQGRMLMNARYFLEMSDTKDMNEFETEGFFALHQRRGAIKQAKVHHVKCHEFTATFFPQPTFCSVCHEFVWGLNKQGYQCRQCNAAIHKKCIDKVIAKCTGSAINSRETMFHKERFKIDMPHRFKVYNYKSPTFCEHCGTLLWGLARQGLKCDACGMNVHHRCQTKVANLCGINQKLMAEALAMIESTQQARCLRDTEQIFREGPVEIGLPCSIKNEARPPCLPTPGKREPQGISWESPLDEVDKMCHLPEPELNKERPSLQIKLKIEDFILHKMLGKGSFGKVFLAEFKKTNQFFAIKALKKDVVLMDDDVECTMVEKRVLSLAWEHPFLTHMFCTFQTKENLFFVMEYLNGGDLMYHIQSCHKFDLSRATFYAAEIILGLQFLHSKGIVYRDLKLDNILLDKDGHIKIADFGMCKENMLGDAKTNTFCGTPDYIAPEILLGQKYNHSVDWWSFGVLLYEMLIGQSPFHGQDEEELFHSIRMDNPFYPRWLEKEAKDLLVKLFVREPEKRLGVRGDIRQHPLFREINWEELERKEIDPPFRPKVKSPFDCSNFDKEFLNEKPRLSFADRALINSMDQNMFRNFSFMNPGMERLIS
Sequence of Serine/threonine-protein kinase Chk1 (Homo sapiens) (O14757 whole entry, looked up): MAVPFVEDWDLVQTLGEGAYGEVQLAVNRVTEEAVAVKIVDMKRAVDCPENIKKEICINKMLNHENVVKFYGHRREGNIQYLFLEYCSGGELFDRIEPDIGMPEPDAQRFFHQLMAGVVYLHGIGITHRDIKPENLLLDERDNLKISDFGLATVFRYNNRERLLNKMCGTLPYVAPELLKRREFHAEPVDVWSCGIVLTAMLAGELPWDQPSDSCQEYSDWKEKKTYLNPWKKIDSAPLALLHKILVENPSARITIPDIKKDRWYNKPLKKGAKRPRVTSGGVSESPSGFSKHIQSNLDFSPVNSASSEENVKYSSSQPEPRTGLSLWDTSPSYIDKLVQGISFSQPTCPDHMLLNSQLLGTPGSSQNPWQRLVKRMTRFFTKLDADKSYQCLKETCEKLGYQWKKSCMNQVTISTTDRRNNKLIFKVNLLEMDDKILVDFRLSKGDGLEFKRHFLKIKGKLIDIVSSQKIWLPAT
Sequence of Uncharacterized serine/threonine-protein kinase SBK3 (Homo sapiens) (P0C264 whole entry, looked up): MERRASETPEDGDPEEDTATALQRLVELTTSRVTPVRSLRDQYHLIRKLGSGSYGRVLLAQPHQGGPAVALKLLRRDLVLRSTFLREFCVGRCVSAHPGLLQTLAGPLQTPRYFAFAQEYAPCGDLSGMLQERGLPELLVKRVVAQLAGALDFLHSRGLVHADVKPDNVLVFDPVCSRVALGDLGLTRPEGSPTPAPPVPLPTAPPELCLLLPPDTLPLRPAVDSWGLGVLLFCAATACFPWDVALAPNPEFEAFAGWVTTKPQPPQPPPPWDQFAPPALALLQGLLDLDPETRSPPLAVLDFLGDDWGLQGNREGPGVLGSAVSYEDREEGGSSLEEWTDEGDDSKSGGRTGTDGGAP
Sequence of Tyrosine-protein kinase receptor UFO (Homo sapiens) (P30530 whole entry, looked up): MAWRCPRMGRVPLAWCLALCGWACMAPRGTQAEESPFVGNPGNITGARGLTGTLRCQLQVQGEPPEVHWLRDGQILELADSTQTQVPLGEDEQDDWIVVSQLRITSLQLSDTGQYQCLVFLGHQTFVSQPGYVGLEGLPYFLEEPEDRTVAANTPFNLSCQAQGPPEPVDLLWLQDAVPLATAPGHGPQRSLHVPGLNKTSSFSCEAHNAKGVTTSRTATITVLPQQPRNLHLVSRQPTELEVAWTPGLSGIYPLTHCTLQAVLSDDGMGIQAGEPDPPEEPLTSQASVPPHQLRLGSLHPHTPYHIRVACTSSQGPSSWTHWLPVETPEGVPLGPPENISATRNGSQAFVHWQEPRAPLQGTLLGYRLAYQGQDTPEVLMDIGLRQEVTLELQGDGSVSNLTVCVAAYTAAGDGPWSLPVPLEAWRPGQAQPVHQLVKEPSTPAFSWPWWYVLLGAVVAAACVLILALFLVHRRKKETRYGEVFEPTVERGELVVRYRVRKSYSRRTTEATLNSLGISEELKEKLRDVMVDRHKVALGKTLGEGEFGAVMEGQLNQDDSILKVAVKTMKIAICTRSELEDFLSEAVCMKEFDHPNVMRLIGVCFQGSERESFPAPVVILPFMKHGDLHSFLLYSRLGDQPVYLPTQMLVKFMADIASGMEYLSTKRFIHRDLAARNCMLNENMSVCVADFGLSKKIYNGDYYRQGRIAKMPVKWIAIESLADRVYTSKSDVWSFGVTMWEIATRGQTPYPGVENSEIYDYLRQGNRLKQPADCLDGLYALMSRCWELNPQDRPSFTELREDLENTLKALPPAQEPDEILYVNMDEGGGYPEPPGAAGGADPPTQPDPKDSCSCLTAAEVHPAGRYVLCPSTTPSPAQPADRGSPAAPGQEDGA
Sequence of Casein kinase I isoform gamma-1 (Homo sapiens) (Q9HCP0 whole entry, looked up, canonical isoform): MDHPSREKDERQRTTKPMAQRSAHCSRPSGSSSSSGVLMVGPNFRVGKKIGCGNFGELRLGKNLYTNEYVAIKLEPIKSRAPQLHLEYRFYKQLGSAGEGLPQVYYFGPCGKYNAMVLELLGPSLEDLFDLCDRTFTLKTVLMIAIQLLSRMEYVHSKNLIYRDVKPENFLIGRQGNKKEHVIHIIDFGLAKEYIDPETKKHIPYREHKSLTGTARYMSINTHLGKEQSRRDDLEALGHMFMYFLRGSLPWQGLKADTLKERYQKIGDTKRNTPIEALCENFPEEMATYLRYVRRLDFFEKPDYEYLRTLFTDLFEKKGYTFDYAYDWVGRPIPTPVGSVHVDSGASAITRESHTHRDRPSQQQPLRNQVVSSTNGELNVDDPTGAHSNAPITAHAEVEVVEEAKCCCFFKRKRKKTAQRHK

- percent of control binding (PIK3CA(E545K)): 100% (inactive)
- percent of control binding (CDK3): 82% (inactive)
- percent of control binding (ACVR2A): 88% (inactive)
- percent of control binding [1]: 100% (inactive)
- percent of control binding [2]: 100% (inactive)
- percent of control binding [3]: 91% (inactive)
- percent of control binding (MYLK): 80% (inactive)
- percent of control binding (CAMK4): 100% (inactive)
- percent of control binding [4]: 100% (inactive)
- percent of control binding (TNIK): 100% (inactive)
- percent of control binding (CSK): 100% (inactive)
- percent of control binding (MEK3): 100% (inactive)
- percent of control binding [5]: 99% (inactive)
- percent of control binding [6]: 94% (inactive)
- percent of control binding [7]: 84% (inactive)
- percent of control binding (AURKC): 100% (inactive)
- percent of control binding [8]: 100% (inactive)
- percent of control binding [9]: 96% (inactive)
- percent of control binding [10]: 100% (inactive)
- percent of control binding ([11]; FGFR3(G697C)): 100% (inactive)
- percent of control binding ([11]; FGFR3): 80% (inactive)
- percent of control binding (AMPK-alpha2): 100% (inactive)
- percent of control binding (RPS6KA6(Kin.Dom.2)): 100% (inactive)
- percent of control binding (ADCK3): 72% (inactive)
- percent of control binding [12]: 100% (inactive)
- percent of control binding [13]: 98% (inactive)
- percent of control binding (MAP3K3): 82% (inactive)
- percent of control binding (RIOK2): 96% (inactive)
- percent of control binding (MARK1): 100% (inactive)
- percent of control binding (TXK): 99% (inactive)
- percent of control binding [14]: 100% (inactive)
- percent of control binding (RPS6KA2(Kin.Dom.1)): 90% (inactive)
- percent of control binding [15]: 100% (inactive)
- percent of control binding [16]: 75% (inactive)
Structure (SMILES): Cc1cc2nc(NCCCO)n(CC(=O)c3cc(C(C)(C)C)c(O)c(C(C)(C)C)c3)c2cc1C
